{
  "source": "paper PMC9481570",
  "about": "“A small molecule antagonist of SMN disrupts the interaction between SMN and RNAP II” (Nature Communications, 2022)",
  "key": {"ZCWPW2 (CW)": {"biological_target": "T1, ZCWPW2 (CW) (Homo sapiens, UniProt Q504Y3)", "T1 construct": "ZCWPW2 (aa 21–78); His (N, cleaved yes); made in house; host or cells: E. coli BL21 (DE3) Codon plus RIL", "T1 sequence (Q504Y3 21-78)": "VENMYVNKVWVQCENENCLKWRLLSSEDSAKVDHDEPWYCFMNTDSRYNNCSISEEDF", "assay": "ITC binding to CW domain of ZCWPW2", "conditions": "Fig. 1c", "excerpt": "(§1) The coding DNA fragments of following Tudor domains were cloned into pET28-MHL vector: SMN (aa 82–147), UHRF1 (aa 126–285), SMNDC1 (aa 53–130), TDRD3 (aa 554–611), SND1 (aa 650–910), TDRD2 (aa 327–420), FXR1 (aa 2–132), PHF1 (aa 28–87), SGF29 (aa 115–293), JMJD2A (aa 897–1101), 53BP1 (aa 1483–1606), SETDB1 (aa 190–410), LBR (aa 1–67), ZGPAT (aa 120–271). The coding regions of chromodomain of CBX7 (aa 8–62), PWWP domain of DNMT3A (aa 275–417), WD40 repeats of WDR5 (aa 24–334) and CW domain of ZCWPW2 (aa 21–78) were also subcloned into pET28-MHL vector to generate N-terminally His-tagged fusion protein. The MBT repeats of L3MBTL1 (aa 200–522) and L3MBTL2 (aa 170–625) were subcloned into pET28GST-LIC vector to generate N-terminally GST-His-tagged fusion protein. All the plasmids were generated by ligase independent cloning (Vazyme Biotech, C112 or ABclonal Technology, RK21020). […] The molecular weight of all protein samples was measured by mass spectrometry.\n(§2) For the ITC measurement, the concentrated proteins were diluted into 20 mM Tris-HCl, pH 7.5, 150 mM NaCl (ITC buffer); the lyophilized compounds were dissolved in the same buffer, and the pH value was adjusted by adding 2 M NaOH or 2 M HCl. […] Compound concentrations were calculated from the mass and the volume of the solvent. […]"}, "SMN_W102Y": {"biological_target": "T2, SMN_W102Y (Homo sapiens, UniProt Q16637, W102Y)", "T2 construct": "SMN (aa 82–147); His (N, cleaved yes); made in house; host or cells: E. coli BL21 (DE3) Codon plus RIL", "T2 sequence (Q16637 82-147 W102Y)": "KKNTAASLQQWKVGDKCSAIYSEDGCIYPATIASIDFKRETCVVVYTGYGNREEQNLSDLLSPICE", "assay": "ITC binding to SMN Tudor mutant W102Y", "conditions": "Fig. 3d", "excerpt": "as §1, §2"}, "JMJD2A": {"biological_target": "T3, JMJD2A (Homo sapiens, UniProt O75164)", "T3 construct": "JMJD2A (aa 897–1101); His (N, cleaved yes); made in house; host or cells: E. coli BL21 (DE3) Codon plus RIL", "T3 sequence (O75164 897-1064)": "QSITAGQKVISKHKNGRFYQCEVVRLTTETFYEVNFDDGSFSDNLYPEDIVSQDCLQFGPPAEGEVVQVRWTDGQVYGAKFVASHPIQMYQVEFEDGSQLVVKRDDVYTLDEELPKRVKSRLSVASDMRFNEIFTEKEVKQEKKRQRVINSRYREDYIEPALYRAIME", "assay": "ITC binding to JMJD2A", "conditions": "Fig. 1c", "excerpt": "as §1, §2"}, "53BP1": {"biological_target": "T4, 53BP1 (Homo sapiens, UniProt Q12888)", "T4 construct": "53BP1 (aa 1483–1606); His (N, cleaved yes); made in house; host or cells: E. coli BL21 (DE3) Codon plus RIL", "T4 sequence (Q12888 1483-1606)": "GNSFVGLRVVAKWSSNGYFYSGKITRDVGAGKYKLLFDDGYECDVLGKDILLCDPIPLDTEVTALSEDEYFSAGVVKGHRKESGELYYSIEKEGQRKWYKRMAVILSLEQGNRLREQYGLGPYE", "assay": "ITC binding to 53BP1", "conditions": "Fig. 1c", "excerpt": "as §1, §2"}, "SMNDC1": {"biological_target": "T5, SMNDC1 (Homo sapiens, UniProt O75940)", "T5 construct": "SMNDC1 (aa 53–130); His (N, cleaved yes); made in house; host or cells: E. coli BL21 (DE3) Codon plus RIL", "T5 sequence (O75940 53-130)": "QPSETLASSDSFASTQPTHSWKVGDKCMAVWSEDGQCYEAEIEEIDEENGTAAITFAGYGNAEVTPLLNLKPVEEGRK", "assay": "ITC binding to SMNDC1", "conditions": "Supplementary Fig. 2; read-out: Kd, ITC binding curve, SMNDC1", "excerpt": "as §1, §2"}, "DNMT3A (PWWP)": {"biological_target": "T6, DNMT3A (PWWP) (Homo sapiens, UniProt Q9Y6K1)", "T6 construct": "DNMT3A (aa 275–417); His (N, cleaved yes); made in house; host or cells: E. coli BL21 (DE3) Codon plus RIL", "T6 sequence (Q9Y6K1 275-417)": "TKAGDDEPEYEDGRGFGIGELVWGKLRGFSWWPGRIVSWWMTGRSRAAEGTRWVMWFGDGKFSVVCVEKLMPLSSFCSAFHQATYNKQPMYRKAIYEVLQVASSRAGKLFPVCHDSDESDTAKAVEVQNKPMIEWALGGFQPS", "assay": "ITC binding to PWWP domain of DNMT3A", "conditions": "Fig. 1c", "excerpt": "as §1, §2"}, "TDRD3_Y566W": {"biological_target": "T7, TDRD3_Y566W (Homo sapiens, UniProt Q9H7E2, Y566W)", "T7 construct": "TDRD3 (aa 554–611); His (N, cleaved yes); made in house; host or cells: E. coli BL21 (DE3) Codon plus RIL", "T7 sequence (Q9H7E2 554-611 Y566W)": "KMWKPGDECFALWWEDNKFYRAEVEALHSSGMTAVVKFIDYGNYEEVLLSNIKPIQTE", "assay": "ITC binding to TDRD3 mutant Y566W", "conditions": "Supplementary Fig. 11b, iTC-200; read-out: Kd, ITC binding curve, TDRD3_Y566W", "excerpt": "as §1, §2"}, "ZGPAT": {"biological_target": "T8, ZGPAT (Homo sapiens, UniProt Q8N5A5)", "T8 construct": "ZGPAT (aa 120–271); His (N, cleaved yes); made in house; host or cells: E. coli BL21 (DE3) Codon plus RIL", "T8 sequence (Q8N5A5 120-271)": "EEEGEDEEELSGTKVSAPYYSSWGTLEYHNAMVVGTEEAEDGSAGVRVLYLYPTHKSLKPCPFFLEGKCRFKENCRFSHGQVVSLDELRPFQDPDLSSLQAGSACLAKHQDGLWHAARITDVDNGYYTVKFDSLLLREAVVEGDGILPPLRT", "assay": "ITC binding to ZGPAT", "conditions": "Fig. 1c", "excerpt": "as §1, §2"}, "TDRD3": {"biological_target": "TDRD3 (Homo sapiens, UniProt Q9H7E2)", "sequence (Q9H7E2 554-611)": "as the sequence (Q9H7E2 554-611 Y566W) above, with W13Y counted along it", "assay": "ITC binding to TDRD3", "parameters": "TDRD3 (aa 554–611); His (N, cleaved yes); made in house; host or cells: E. coli BL21 (DE3) Codon plus RIL", "conditions": "Supplementary Figs. 2 and 11b (VP-ITC); read-out: Kd, ITC binding curve, TDRD3", "excerpt": "as §1, §2"}, "SMN_Y127F": {"biological_target": "T9, SMN_Y127F (Homo sapiens, UniProt Q16637, Y127F)", "T9 construct": "cloned into pET28-MHL vector: SMN (aa 82–147); His (N, cleaved yes); made in house; host or cells: E. coli BL21 (DE3) Codon plus RIL", "T9 sequence (Q16637 82-147 Y127F)": "as the sequence (Q16637 82-147 W102Y) above, with Y21W, Y46F counted along it", "assay": "ITC binding to SMN Tudor mutant Y127F", "conditions": "Fig. 3d", "excerpt": "as §1, §2"}},
  "data": [
    {"smiles": "Cn1c2c(c(=N)c3c1CCC3)CCC2", "note": "[Compound 1, 4-methyl-2,3,4,5,6,7-hexahydrodicyclopenta[b,e]pyridin-8(1H)-imine]", "values": [
      {"measurement": "Kd", "setting": "ZCWPW2 (CW)", "value": "> 244", "unit": "µM"},
      {"measurement": "Kd", "setting": "SMN_W102Y", "value": "8.3 ± 1.1", "unit": "µM"},
      {"measurement": "Kd", "setting": "JMJD2A", "value": "> 244", "unit": "µM"},
      {"measurement": "Kd", "setting": "53BP1", "value": "> 244", "unit": "µM"},
      {"measurement": "Kd", "setting": "SMNDC1", "value": "2.8 ± 0.2", "unit": "µM"},
      {"measurement": "Kd", "setting": "DNMT3A (PWWP)", "value": "> 244", "unit": "µM"},
      {"measurement": "Kd", "setting": "TDRD3_Y566W", "value": "3.8 ± 0.4", "unit": "µM"},
      {"measurement": "Kd", "setting": "ZGPAT", "value": "> 244", "unit": "µM"},
      {"measurement": "Kd", "setting": "TDRD3", "value": "11 ± 1", "unit": "µM"},
      {"measurement": "Kd", "setting": "SMN_Y127F", "value": "4 ± 0.2", "unit": "µM"}
    ]}
  ]
}
